These results are taken from doi:10.1101/2024.06.13.594677v1 (biorxiv, 2024).

Read-outs that look alike come from different tables or passages of the source.

Usually EC50 stands for the concentration at which the effect is half-maximal. Low readings indicate higher potency in that assay, high ones lower potency in that assay. For orientation: pEC50 means the negative decadic logarithm of the EC50, by convention in mol/L. Lower therefore signals a high EC50.

For experiment [1], the target named is T1, human 5-HT2A receptor (Homo sapiens, UniProt P28223). Also noted: species or system SH-SY5Y expressing human 5-HT2A. To be noted: agonist.
T1 sequence (P28223 whole entry): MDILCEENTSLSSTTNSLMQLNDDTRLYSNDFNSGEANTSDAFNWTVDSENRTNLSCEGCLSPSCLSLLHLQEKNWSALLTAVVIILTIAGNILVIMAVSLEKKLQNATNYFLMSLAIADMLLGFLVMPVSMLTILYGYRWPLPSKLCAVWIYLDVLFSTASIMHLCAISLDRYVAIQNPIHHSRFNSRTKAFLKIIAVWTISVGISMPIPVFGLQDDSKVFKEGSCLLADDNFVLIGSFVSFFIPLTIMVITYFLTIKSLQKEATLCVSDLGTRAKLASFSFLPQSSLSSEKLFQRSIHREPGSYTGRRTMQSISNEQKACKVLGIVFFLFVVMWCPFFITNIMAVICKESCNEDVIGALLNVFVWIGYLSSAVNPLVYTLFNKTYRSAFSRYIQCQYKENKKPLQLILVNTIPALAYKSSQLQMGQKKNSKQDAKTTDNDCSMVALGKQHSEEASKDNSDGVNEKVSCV
In experiment [2] the target is T1, human 5-HT2A receptor. Also noted: species or system SH-SY5Y expressing human 5-HT2A. The note with it: agonist. The source holds these as a separate data set.
Experiment [3] has as its target T2, rat 5-HT2A receptor (Rattus norvegicus, UniProt P14842). Also noted: species or system C6 glioma (endogenous rat 5-HT2A). To be noted: relative to 10 uM 5-HT; agonist.
The target in experiment [4] is T2, rat 5-HT2A receptor.
Experiment [5] has as its target T1, human 5-HT2A receptor. Also noted: species or system SH-SY5Y expressing human 5-HT2A. The note with it: agonist. This is another data set of the same source.
The target in experiment [6] is T2, rat 5-HT2A receptor. The experiment can be described thus: cytosolic Ca2+. Format: cell-based. To be noted: Gq/Ca2+ agonism; room temperature; HBSS with Ca2+.
The target in experiment [7] is T1, human 5-HT2A receptor. Format: cell-based. The note with it: beta-arrestin2 agonism; GRK2 and GRK3 co-expressed; DPBS with Ca2+; […] min.
The target of experiment [8] is T1, human 5-HT2A receptor. The class given is cell-based. To be noted: Gq/IP1 agonism; LiCl; […] °C, […] h.
Experiment [9] concerns the target T1, human 5-HT2A receptor. The class given is cell-based. To be noted: Gq/Ca2+ agonism; room temperature; HBSS with Ca2+.

T2 sequence (P14842 whole entry): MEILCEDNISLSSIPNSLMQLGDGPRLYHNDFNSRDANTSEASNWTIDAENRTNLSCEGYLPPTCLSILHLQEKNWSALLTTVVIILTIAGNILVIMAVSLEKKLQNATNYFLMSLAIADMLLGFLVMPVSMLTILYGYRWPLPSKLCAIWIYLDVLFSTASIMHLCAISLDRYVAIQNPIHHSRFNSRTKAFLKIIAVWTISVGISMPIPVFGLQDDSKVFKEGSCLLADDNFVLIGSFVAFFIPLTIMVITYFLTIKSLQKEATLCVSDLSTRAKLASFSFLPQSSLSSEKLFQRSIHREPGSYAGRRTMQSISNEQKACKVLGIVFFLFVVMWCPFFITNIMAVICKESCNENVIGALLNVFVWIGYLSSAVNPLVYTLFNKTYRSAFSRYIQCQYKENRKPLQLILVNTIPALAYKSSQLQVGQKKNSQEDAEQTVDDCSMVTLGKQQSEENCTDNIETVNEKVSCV

In the case of `COc1ccc2[nH]cc(CCN(C)C)c2c1` [5-MeO-DMT, 5-methoxy-N,N-dimethyltryptamine], the “β-arrestin2 Emax” value in [1] came out at 0.70 ± 0.020. The “Ca2+ Emax” value in experiment [2] is listed as 0.73 ± 0.033. Also, the “Ca2+ Emax (C6)” value in [3] was 0.36 ± 0.021%. Also, the midpoint of the response in experiment [4], the EC50, lay at 240 nM. The “IP1 Emax” value in [5] was determined as 0.93 ± 0.027.

In the case of `COc1cc(CCNCc2ccccc2OC)c(OC)cc1Br` [25B-NBOMe, 4-bromo-2,5-dimethoxy-N-(2-methoxybenzyl)phenethylamine], the pEC50 is reported as 8.10 ± 0.23 in experiment [6], 8.20 ± 0.079 in [7], 8.95 ± 0.28 in experiment [8] and 7.84 ± 0.15 in [9].

Regarding `COc1cc(CCNCc2ccccc2OC)c(OC)cc1Br` [25B-NBOMe], the “β-arrestin2 Emax” value in [1] turned out to be 0.88 ± 0.017. Besides, the “Ca2+ Emax” value in experiment [2] is 0.57 ± 0.021. The “Ca2+ Emax (C6)” value in [3] came out at 0.46 ± 0.027%. The “IP1 Emax” value in [5] is 0.75 ± 0.040.

For the compound `COc1cc(CC(C)N)c(OC)cc1I` (stereo not shown) [DOI, 2,5-dimethoxy-4-iodoamphetamine], the “β-arrestin2 Emax” value in [1] was 0.73 ± 0.027. In experiment [2], the “Ca2+ Emax” value is listed as 0.49 ± 0.019. The “Ca2+ Emax (C6)” value in experiment [3] was found to be 0.32 ± 0.017%. The pEC50 in experiment [6] is 7.14 ± 0.16. For the same compound, the “IP1 Emax” value in experiment [5] is 1.12 ± 0.025.

For the compound `CCN(CC)C(=O)[C@@H]1C=C2c3cccc4[nH]cc(c34)C[C@H]2N(C)C1` [LSD], the “Ca2+ Emax” value in [2] turned out to be 0.36 ± 0.027. For the same compound, in experiment [3], the “Ca2+ Emax (C6)” value is reported as 0.19 ± 0.0092%. For the same compound, the “IP1 Emax” value in experiment [5] is 0.78 ± 0.039.

Take `COc1cc(CCN)cc(OC)c1OC` [Mescaline, 3,4,5-trimethoxyphenethylamine]: in [1], the “β-arrestin2 Emax” value is given as 0.64 ± 0.059. The “Ca2+ Emax” value in experiment [2] is given as 0.47 ± 0.031. Further, in [3], the “Ca2+ Emax (C6)” value worked out at 0.40 ± 0.025%. For the same compound, it took 295 nM to reach a half-maximal effect in [4] (EC50). Further, in [5], the “IP1 Emax” value was 0.81 ± 0.050.

For `COc1ccc2c3c([nH]c2c1)CCN(C)CC3` [TBG], the “β-arrestin2 Emax” value in experiment [1] turned out to be 0.19 ± 0.026. Moreover, the “Ca2+ Emax” value in [2] worked out at 0.13 ± 0.033. Also, the “IP1 Emax” value in [5] came to 0.35 ± 0.064.

For the compound `CN(C)CCc1c[nH]c2cccc(O)c12` [psilocin], the “β-arrestin2 Emax” value in experiment [1] stood at 0.28 ± 0.019. Further, the “Ca2+ Emax” value in experiment [2] came to 0.40 ± 0.019. In addition, the “Ca2+ Emax (C6)” value in experiment [3] turned out to be 0.12 ± 0.0079%. For the same compound, the pEC50 in experiment [6] was determined as 7.15 ± 0.20. For the same compound, the “IP1 Emax” value in experiment [5] is 0.80 ± 0.030.
